Values after ≈ are worked out from the molar mass of the structure shown.
Legend:
[1] = test system: drug-resistant bacteria capable of producing the 3'-phosphotransferase; conditions: 3'-phosphotransferase producers; cited from earlier work
[2] = test system: various kanamycin-resistant bacteria and Pseudomonas aeruginosa (for example, Pseudomonas aeruginosa GN 315) capable of producing the 6'-acetyltransferase; conditions: 6'-acetyltransferase producers; cited from earlier work
[3] = test system: Escherichia coli K-12 JR66/W677; experiment: Minimum inhibitory concentration, agar dilution-streak method; type: cell-based; conditions: K12JR66/W677, 18 h, read-out: Minimum Inhibitory Concentration
Procedure: (§1) The minimum inhibitory concentrations (mcg/ml) of the new compounds 1-N-((S)-γ-amino-α-hydroxybutyryl)-3'-deoxykanamycin A (abbreviated as S-AHB-DKA); 1-N-((SR)-β-amino-α-hydroxypropionyl)-3'-deoxykanamycin A (abbreviated as SR-AHP-DKA); 1-N-((S)-δ-amino-α-hydroxyvaleryl)-3'-deoxykanamycin A (abbreviated as S-AHV-DKA); and 1-N-((S)-γ-amino-α-hydroxybutyryl)-6'-N-methyl-3'-deoxykanamycin A (abbreviated as S-AHB-MDKA) against various organisms were determined according to agar dilution-streak method (nutrient agar) at 37° C, the estimation being made after 18 hours incubation. For the comparison purpose, the minimum inhibitory concentrations (mcg/ml) of the parent antibiotic 3'-deoxykanamycin A, as well as 1-N-((S)-γ-amino-α-hydroxybutyryl)kanamycin A (abbreviated as AHB-KMA) which is known from U.S. Pat. No. 3,781,268 were also determined in the same manner as stated above.

[4] = test system: Escherichia coli K-12 LA 290 R55; experiment: as above; type: cell-based; conditions: K12LA290R55, 18 h, read-out: Minimum Inhibitory Concentration
Procedure: as §1

[5] = test system: Escherichia coli K-12 ML 1410; experiment: as above; type: cell-based; conditions: K12ML1410, E. coli K-12 ML 1410, nutrient agar, 37° C, 18 hours
Procedure: as §1

[6] = test system: Escherichia coli K-12 ML 1629; experiment: as above; type: cell-based; conditions: K12ML1629, E. coli K-12 ML 1629, nutrient agar, 37° C, 18 hours
Procedure: as §1

[7] = test system: Escherichia coli K-12 ML 1630; experiment: as above; type: cell-based; conditions: K12ML1630, E. coli K-12 ML 1630, nutrient agar, 37° C, 18 hours
Procedure: as §1

[8] = test system: Escherichia coli K-12 W677; experiment: as above; type: cell-based; conditions: K12W677, E. coli K-12 W677, nutrient agar, 37° C, 18 hours
Procedure: as §1

Escherichia coli K-12 = experiment: as above; type: cell-based; conditions: K12, E. coli K-12, nutrient agar, 37° C, 18 hours
Procedure: as §1

[9] = test system: Pseudomonas aeruginosa A3; experiment: as above; type: cell-based; conditions: P. aeruginosa A3, nutrient agar, 37° C, 18 hours
Procedure: as §1

[10] = test system: Pseudomonas aeruginosa GN315; experiment: as above; type: cell-based; conditions: P. aeruginosa GN315, nutrient agar, 37° C, 18 hours
Procedure: as §1

[11] = test system: Pseudomonas aeruginosa No. 12; experiment: as above; type: cell-based; conditions: P. aeruginosa No. 12, nutrient agar, 37° C, 18 hours
Procedure: as §1

[12] = test system: Staphylococcus aureus FDA 209P; experiment: as above; type: cell-based; conditions: FDA209P, S. aureus FDA 209P, nutrient agar, 37° C, 18 hours
Procedure: as §1

[13] = test system: kanamycin-resistant bacteria and ribostamycin-resistant bacteria; conditions: cited from earlier work

Compound	effectiveness against drug-resistant bacteria [1]	activity against resistant bacteria [2]	MIC [3] [µg/mL]	MIC [4] [µg/mL]	MIC [5] [µg/mL]	MIC [6] [µg/mL]	MIC [7] [µg/mL]	MIC [8] [µg/mL]	MIC (Escherichia coli K-12) [µg/mL]	MIC [9] [µg/mL]	MIC [10] [µg/mL]	MIC [11] [µg/mL]	MIC [12] [µg/mL]	activity against resistant bacteria [13]
NC[C@@H]1CC[C@@H](N)[C@@H](O[C@H]2[C@H](O)[C@@H](O[C@H]3O[C@H](CO)[C@@H](O)[C@H](N)[C@H]3O)[C@H](N)C[C@@H]2N)O1 [3',4'-dideoxykanamycin B]	practically effective against the drug-resistant bacteria	–	–	–	–	–	–	–	–	–	–	–	–	–
NC[C@@H]1CC[C@@H](N)[C@@H](O[C@H]2[C@H](O[C@@H]3O[C@H](CO)[C@@H](O)[C@H]3O)[C@@H](O)[C@H](N)C[C@@H]2N)O1 [3',4'-dideoxyribostamycin]	practically effective against the drug-resistant bacteria	–	–	–	–	–	–	–	–	–	–	–	–	–
CNC[C@@H]1CC[C@@H](N)[C@@H](O[C@H]2[C@H](O)[C@@H](O[C@H]3O[C@H](CO)[C@@H](O)[C@H](N)[C@H]3O)[C@H](N)C[C@@H]2N)O1 [6'-N-methyl-3',4'-dideoxykanamycin B]	–	active against various kanamycin-resistant bacteria and Pseudomonas aeruginosa	–	–	–	–	–	–	–	–	–	–	–	–
CNC[C@H]1O[C@H](O[C@H]2[C@H](O)[C@@H](O[C@H]3O[C@H](CO)[C@@H](O)[C@H](N)[C@H]3O)[C@H](N)C[C@@H]2N)[C@H](N)C[C@@H]1O [6'-N-methyl-3'-deoxykanamycin B]	–	active against various kanamycin-resistant bacteria and Pseudomonas aeruginosa	–	–	–	–	–	–	–	–	–	–	–	–
NCC[C@H](O)C(=O)N[C@@H]1C[C@H](N)[C@@H](O[C@H]2O[C@H](CN)[C@@H](O)[C@H](O)[C@H]2O)[C@H](O)[C@H]1O[C@H]1O[C@H](CO)[C@@H](O)[C@H](N)[C@H]1O [AHB-KMA, 1-N-((S)-γ-amino-α-hydroxybutyryl)kanamycin A, reference compound]	–	–	3.12 (≈ 5.33 µM)	0.78 (≈ 1.33 µM)	0.78 (≈ 1.33 µM)	0.78 (≈ 1.33 µM)	1.56 (≈ 2.66 µM)	0.78 (≈ 1.33 µM)	0.78 (≈ 1.33 µM)	3.12 (≈ 5.33 µM)	100 (≈ 171 µM)	6.25 (≈ 10.7 µM)	0.78 (≈ 1.33 µM)	–
NC[C@H]1O[C@H](O[C@H]2[C@H](O)[C@@H](O[C@H]3O[C@H](CO)[C@@H](O)[C@H](N)[C@H]3O)[C@H](N)C[C@@H]2N)[C@H](O)C[C@@H]1O [DKA, 3'-deoxykanamycin A]	practically effective against the drug-resistant bacteria	–	> 100	3.12 (≈ 6.66 µM)	3.12 (≈ 6.66 µM)	3.12 (≈ 6.66 µM)	3.12 (≈ 6.66 µM)	3.12 (≈ 6.66 µM)	3.12 (≈ 6.66 µM)	3.12 (≈ 6.66 µM)	> 100	12.5 (≈ 26.7 µM)	1.56 (≈ 3.33 µM)	–
NCC[C@H](O)C(=O)N[C@@H]1C[C@H](N)[C@@H](O[C@H]2O[C@H](CN)[C@@H](O)C[C@H]2O)[C@H](O)[C@H]1O[C@H]1O[C@H](CO)[C@@H](O)[C@H](N)[C@H]1O [S-AHB-DKA, 1-N-((S)-γ-amino-α-hydroxybutyryl)-3'-deoxykanamycin A]	–	–	0.78 (≈ 1.37 µM)	0.78 (≈ 1.37 µM)	0.39 (≈ 0.685 µM)	0.39 (≈ 0.685 µM)	0.78 (≈ 1.37 µM)	< 0.2	0.39 (≈ 0.685 µM)	3.12 (≈ 5.48 µM)	100 (≈ 176 µM)	3.12 (≈ 5.48 µM)	0.39 (≈ 0.685 µM)	–
CNC[C@H]1O[C@H](O[C@H]2[C@H](O)[C@@H](O[C@H]3O[C@H](CO)[C@@H](O)[C@H](N)[C@H]3O)[C@H](NC(=O)[C@@H](O)CCN)C[C@@H]2N)[C@H](O)C[C@@H]1O [S-AHB-MDKA, 1-N-((S)-γ-amino-α-hydroxybutyryl)-6'-N-methyl-3'-deoxykanamycin A]	–	–	1.56 (≈ 2.67 µM)	1.56 (≈ 2.67 µM)	0.78 (≈ 1.34 µM)	1.56 (≈ 2.67 µM)	0.78 (≈ 1.34 µM)	3.12 (≈ 5.35 µM)	0.39 (≈ 0.668 µM)	3.12 (≈ 5.35 µM)	6.25 (≈ 10.7 µM)	3.12 (≈ 5.35 µM)	0.78 (≈ 1.34 µM)	–
NCCC[C@H](O)C(=O)N[C@@H]1C[C@H](N)[C@@H](O[C@H]2O[C@H](CN)[C@@H](O)C[C@H]2O)[C@H](O)[C@H]1O[C@H]1O[C@H](CO)[C@@H](O)[C@H](N)[C@H]1O [S-AHV-DKA, 1-N-((S)-δ-amino-α-hydroxyvaleryl)-3'-deoxykanamycin A]	–	–	3.12 (≈ 5.35 µM)	3.12 (≈ 5.35 µM)	3.12 (≈ 5.35 µM)	1.56 (≈ 2.67 µM)	1.56 (≈ 2.67 µM)	3.12 (≈ 5.35 µM)	0.78 (≈ 1.34 µM)	3.12 (≈ 5.35 µM)	> 100	6.25 (≈ 10.7 µM)	0.78 (≈ 1.34 µM)	–
NCC(O)C(=O)N[C@@H]1C[C@H](N)[C@@H](O[C@H]2O[C@H](CN)[C@@H](O)C[C@H]2O)[C@H](O)[C@H]1O[C@H]1O[C@H](CO)[C@@H](O)[C@H](N)[C@H]1O (stereo partly drawn) [SR-AHP-DKA, 1-N-((SR)-β-amino-α-hydroxypropionyl)-3'-deoxykanamycin A]	–	–	1.56 (≈ 2.81 µM)	1.56 (≈ 2.81 µM)	0.78 (≈ 1.4 µM)	0.78 (≈ 1.4 µM)	0.78 (≈ 1.4 µM)	0.78 (≈ 1.4 µM)	0.39 (≈ 0.702 µM)	3.12 (≈ 5.62 µM)	> 100	6.25 (≈ 11.2 µM)	0.78 (≈ 1.4 µM)	–
NCC[C@H](O)C(=O)N[C@@H]1C[C@H](N)[C@@H](O[C@H]2O[C@H](CN)[C@@H](O)[C@H](O)[C@H]2N)[C@H](O[C@@H]2O[C@H](CO)[C@@H](O)[C@H]2O)[C@H]1O [butirosin B, 1-N-((S)-α-hydroxy-γ-amino-n-butyryl)-5-O-β-D-ribofuranosylneamine]	–	–	–	–	–	–	–	–	–	–	–	–	–	active against some kanamycin-resistant bacteria and some ribostamycin-resistant bacteria
